Data set [1] has as its system PGE2 production in IL-1β-treated mouse articular chondrocytes. As to the kind of experiment: PGE2 ELISA in IL-1β-treated chondrocytes. Format: cell-based. To be noted: NCD 10, 50, 100 µM, dose-dependent. How it is done: NCD was supplied by Benobio Co (Gyeonggi-do, Korea), and IL‐1β was purchased from GenScript (Piscataway, NJ, USA). NCDs were dissolved in phosphate-buffered saline (PBS) for oral administration or IA injection.
PGE2 expression was determined by enzyme-linked immunosorbent assay (ELISA) using a PGE2 Immunoassay Kit (R&D Systems, Minneapolis, MN, USA). The levels of PGE2 in the conditioned medium of articular chondrocytes were determined. Collagenase activity was measured using a VICTOR X3 Microplate Reader (PerkinElmer, Waltham, MA, USA) at the excitation/emission wavelengths of 490/530 nm following the protocol provided by the manufacturer.

The subject of data set [2] is DMM-induced OA in C57BL/6J mice. As to the kind of experiment: DMM-induced OA mouse model, oral administration. The data set is classed as in vivo. How it is done:
All experiments were independently performed with at least three biological replicates to ensure reproducibility. For in vivo studies, animals were randomly assigned to treatment or control groups. To create a DMM-induced OA model, DMM surgery was performed on 12-week-old male C57BL/6J mice, following a previously reported protocol ([26]). Subsequently, NCD was either orally administered or injected in mice; the NCD (50 mg/kg) was orally administered on alternate days 4 weeks after DMM, whereas IA knee injection of NCD (10 μg) was administered once a week after 4 weeks. The mouse knee joint was processed for histological analysis 10 weeks after surgery. All experiments were independently performed with at least three biological replicates to ensure reproducibility. For in vivo studies, animals were randomly assigned to treatment or control groups. For in vitro experiments, cells were plated using a randomized layout across multi-well plates to avoid positional effects and ensure unbiased treatment assignment
All histological samples were prepared independently by two researchers. Cartilage destruction was evaluated based on Safranin O staining and scored using the OA Research Association International (OARSI) grading system ([29]). Additionally, all histological samples were analyzed through osteophyte maturity scoring and subchondral bone plate (SBP) thickness. Osteophyte maturity was scored as described previously ([30]). Briefly, the scoring was as follows: 0 = none, 1 = predominantly cartilaginous, 2 = mixed cartilage and bone with active vascular invasion and endochondral ossification, 3 = predominantly bone. SBP thickness was measured to analyze subchondral bone sclerosis. All experiments were independently performed over at least three replicates. […] For each sample, measurements were performed on serial sections, and the mean value was calculated for analysis. The samples were […] by treating with 0.5 M ethylenediamine tetraacetic acid (pH 8.0) for 2 weeks. Next, mouse knee joint samples were fixed using 4% paraformaldehyde and embedded in paraffin. The paraffin-embedded samples were cut into 5-μm sections and fixed on glass slides. The tissue sections were then hydrated using a graded ethanol series, which removed paraffin and xylene. Mouse knee joint sections were immunohistochemically analyzed using anti-Mmp3 (ab52915, Abcam, Cambridge, UK), anti-Mmp13 (ab51072, Abcam), and anti-Cox2 (66351-I-Ig, ProteinTech, Rosemont, ILllinois, USA).

The target of the next data set is T1, BRD2 (BD1 + BD2) (Homo sapiens, UniProt P25440).
T1 construct: kits specific for BRD2 (BD1 + BD2); purchased BPS Bioscience
T1 sequence (P25440 65-459 limits assumed): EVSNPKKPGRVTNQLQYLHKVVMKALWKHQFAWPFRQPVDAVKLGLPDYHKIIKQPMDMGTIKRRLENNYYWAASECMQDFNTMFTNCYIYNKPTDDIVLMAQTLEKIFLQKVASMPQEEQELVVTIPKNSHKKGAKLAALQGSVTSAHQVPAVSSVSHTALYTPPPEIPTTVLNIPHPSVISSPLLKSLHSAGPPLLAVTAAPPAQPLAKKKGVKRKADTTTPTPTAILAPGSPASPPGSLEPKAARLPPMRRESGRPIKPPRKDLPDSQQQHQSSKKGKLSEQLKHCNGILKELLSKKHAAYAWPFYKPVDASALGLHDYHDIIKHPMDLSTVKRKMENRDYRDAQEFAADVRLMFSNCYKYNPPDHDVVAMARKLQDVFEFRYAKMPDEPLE
As to the kind of experiment: TR-FRET assay, BRD2 (BD1 + BD2). The settings on record: lower signal = stronger binding. How it is done: (§1) TR-FRET assays were conducted using kits specific for BRD2 (BD1 + BD2), BRD3 (BD1 + BD2), and BRD4 (BD1 + BD2) obtained from BPS Bioscience (San Diego, CA, USA). Bromodomain ligands were diluted in water, and master mixes were prepared by combining the diluted ligands with 1× BRD Homogeneous Assay Buffer. Thawed BRD proteins were also diluted with the same buffer. For each assay, 1.5 μL of the master mix was dispensed into wells of a microplate (Labcyte, San Jose, CA, USA), followed by the addition of 5 μL of diluted BRD protein to initiate the reaction. Plates were incubated at 20–22°C for 30–60 min. Subsequently, glutathione (GSH) acceptor beads and streptavidin-conjugated donor beads (both from PerkinElmer, Waltham, MA, USA) were diluted in 1× BRD Homogeneous Detection Buffer 1. Next, 10 μL of the acceptor bead solution was added to each well and incubated at 18°C for 30 min, followed by the addition of 10 μL of donor bead solution and a further incubation at 18°C for 15–30 min. Alpha particle counts were measured using an EnVision 2105 multimode plate reader (PerkinElmer).
Background: In TR-FRET formats the signal depends on donor and acceptor labels being close together.

The next data set addresses T2, BRD2 BD2 (Homo sapiens, UniProt P25440).
T2 construct: biotinylated BRD2 BD1, BRD2 BD2; biotin (biotinylated protein); made in house; host or cells: Escherichia coli BL21(DE3)
As to the kind of experiment: Biosensor binding kinetics assay (Octet), BRD2 BD2. How it is done: (§2) Binding kinetics were assessed using the Octet® R2 system (Sartorius, Göttingen, Germany). Superstreptavidin biosensors were loaded with biotinylated BRD2 BD1, BRD2 BD2, BRD3 BD1, BRD3 BD2, BRD4 BD1, BRD4 BD2, or biotin alone (as a negative control) in PBST buffer (phosphate-buffered saline containing 0.02% Tween 20 and 5% DMSO). The sensors were then dipped into compound solutions for 10 min. To evaluate association kinetics (kon), each sensor was exposed to serial dilutions of the protein for 180 s, followed by dipping them into PBST buffer to assess dissociation kinetics (koff). For control, a separate sensor loaded with the compound was dipped into PBST alone. Competition binding assays were performed by exposing the compound-loaded sensor to mixtures of proteins and test compounds.
(In general: Biolayer interferometry detects binding as a change in optical thickness at a sensor tip.)

Data set [3] has as its system mouse primary articular chondrocytes. In words: Chondrocyte viability by lactate dehydrogenase (LDH) assay. The data set is classed as cell-based. The settings on record: 12 h, NCD 0, 10, 20, 50, 100 µM, JQ1 different concentrations.
Another data set has as its target T3, BRD3 BD1 (Homo sapiens, UniProt Q15059).
T3 construct: biotinylated BRD2 BD1, BRD2 BD2, BRD3 BD1; biotin (biotinylated protein); made in house; host or cells: Escherichia coli BL21(DE3)
In words: Biosensor binding kinetics assay (Octet), BRD3 BD1. The procedure: as §2

The target of the next data set is T4, BRD4 BD2 (Homo sapiens, UniProt O60885).
T4 construct: BRD3 BD2, BRD4 BD1, BRD4 BD2; biotin (biotinylated protein); made in house; host or cells: Escherichia coli BL21(DE3)
In words: Biosensor binding kinetics assay (Octet), BRD4 BD2. The procedure: as §2

In another data set the test system is liver, lungs of mice. As to the kind of experiment: In vivo organ histology after oral or IA administration.
The target in the next data set is T5, BRD3 (BD1 + BD2) (Homo sapiens, UniProt Q15059).
T5 construct: BRD3 (BD1 + BD2); purchased BPS Bioscience
T5 sequence (Q15059 29-417 limits assumed): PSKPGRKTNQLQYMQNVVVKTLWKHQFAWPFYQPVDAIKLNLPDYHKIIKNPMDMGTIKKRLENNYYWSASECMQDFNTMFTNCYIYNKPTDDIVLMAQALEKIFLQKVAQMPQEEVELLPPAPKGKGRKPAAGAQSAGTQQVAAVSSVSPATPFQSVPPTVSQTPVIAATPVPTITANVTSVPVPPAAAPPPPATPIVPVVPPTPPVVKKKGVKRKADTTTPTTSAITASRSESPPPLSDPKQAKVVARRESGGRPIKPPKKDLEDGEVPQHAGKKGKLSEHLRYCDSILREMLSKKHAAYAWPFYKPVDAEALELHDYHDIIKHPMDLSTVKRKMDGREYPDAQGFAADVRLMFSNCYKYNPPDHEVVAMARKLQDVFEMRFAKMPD
As to the kind of experiment: TR-FRET assay, BRD3 (BD1 + BD2). The settings on record: lower signal = stronger binding. How it is done:
as §1

Where [4] appears, read: oral 50 mg/kg on alternate days from 4 weeks after DMM, 10 weeks after surgery, vs vehicle.

This is an account of results in paper PMC12350126, “A novel carboxamide bromodomain inhibitor attenuates osteoarthritis via epigenetic repression of NF-κB and MAPK signaling” (Frontiers in Immunology, 2025).

T3 sequence (Q15059 34-140 limits assumed): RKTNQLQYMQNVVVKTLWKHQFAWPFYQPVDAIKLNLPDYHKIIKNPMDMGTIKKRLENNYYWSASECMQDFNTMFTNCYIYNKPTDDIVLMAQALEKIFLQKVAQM
T2 sequence (P25440 344-453 limits assumed): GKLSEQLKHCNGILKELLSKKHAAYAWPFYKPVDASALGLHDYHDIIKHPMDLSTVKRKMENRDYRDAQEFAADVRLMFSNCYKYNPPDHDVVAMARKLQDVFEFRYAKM

As a reminder, the Kd is the constant that tells how readily two partners part at equilibrium. On to `CNC(=O)CC1C(=O)NCCN1Cc1ccc(-c2ccccc2-c2cccc3c2CN(C)C3=O)o1` (stereo not drawn) [NCD, N-methyl-2-(1-((5-(2-(2-methyl-1-oxoisoindolin-4-yl)phenyl)furan-2-yl)methyl)-3-oxopiperazin-2-yl)acetamide], for which the PGE2 production entry in [1] was “significantly decreased”. In data set [2] (setting [4]), the OARSI score result is on record as “decrease”, the Osteophyte maturity entry is on record as “decrease” and the SBP thickness entry is “decrease”. Besides, in data set [2] (oral 50 mg/kg, DMM mice), the “Expression of Mmp3, Mmp13 and Cox2 in articular cartilage (immunohistochemistry)” value was “markedly reduced expression levels”; the “NITEGE levels (aggrecan degradation neoepitope)” value is on record as “significantly reduced”; the “Type II collagen (immunohistochemistry)” value is recorded as “restored”. In addition, the TR-FRET value on BRD2 (BD1 + BD2) was 96511 RLU. Besides, the Kd at BRD2 BD2 came out at 104 nM. The “Cell viability / cytotoxicity (LDH assay)” value in [3] is “no significant cytotoxic effects”. Moreover, the Kd at BRD3 BD1 was > 1000 nM. Also, the Kd at BRD4 BD2 was > 1000 nM. In the data set on liver, lungs of mice (oral and intra-articular administration), the “Cytotoxicity in the liver or lungs (histological analyses)” value is recorded as “no apparent cytotoxicity”. In addition, the “Organ toxicity in vivo” value in the data set on liver, lungs of mice (oral or IA routes) is “without causing detectable organ toxicity”. Further, on BRD3 (BD1 + BD2), the TR-FRET value is > 100000 RLU.
